Test results from the supplement of paper PMC10627819.

Assays:
Assay in all cases: fitness (endpoint OD595 vs no drug) (fraction); higher = more growth
S. aureus DSM 20231 = system: S. aureus DSM 20231
Outline: (§1)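 Plates with 384 wells were inoculated at OD595 0.01 using 30 µl of TSB, LB Lennox or CY, or 55 µl for S. pneumoniae. Incubation was at 37 °C, with OD595 measured every 30 min for 14 h. Fitness is the stationary-phase transition optical density over the robust mean of no-drug control wells, after first-reading background subtraction; it is capped at 1.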

B. subtilis 168 = system: B. subtilis 168
Outline: as §1

S. pneumoniae D39V = system: S. pneumoniae D39V
Outline: as §1

CN(C)[C@@H]1C(O)=C(C(N)=O)C(=O)[C@@]2(O)C(O)=C3C(=O)c4c(O)ccc(Cl)c4[C@@](C)(O)[C@H]3C[C@@H]12 [Chlortetracycline] + COc1cc(Cc2cnc(N)nc2N)cc(OC)c1OC [Trimethoprim]
one replicate
Settings | fitness
B. subtilis 168, first compound 0.0475 µg/mL, partner 0.1 µg/mL | 0.82
B. subtilis 168, first compound 0.0475 µg/mL, partner 0.2 µg/mL | 0.735
B. subtilis 168, first compound 0.0475 µg/mL, partner 0.4 µg/mL | 0.637
B. subtilis 168, first compound 0.0475 µg/mL, partner 1 µg/mL | 0.296
B. subtilis 168, first compound 0.0475 µg/mL, partner 2 µg/mL | 0.305
B. subtilis 168, first compound 0.095 µg/mL, partner 0.1 µg/mL | 0.81
B. subtilis 168, first compound 0.095 µg/mL, partner 0.2 µg/mL | 0.707
B. subtilis 168, first compound 0.095 µg/mL, partner 0.4 µg/mL | 0.531
B. subtilis 168, first compound 0.095 µg/mL, partner 1 µg/mL | 0.132
B. subtilis 168, first compound 0.095 µg/mL, partner 2 µg/mL | 0.119
B. subtilis 168, first compound 0.19 µg/mL, partner 0.1 µg/mL | 0.599
B. subtilis 168, first compound 0.19 µg/mL, partner 0.2 µg/mL | 0.421
B. subtilis 168, first compound 0.19 µg/mL, partner 0.4 µg/mL | 0.279
B. subtilis 168, first compound 0.19 µg/mL, partner 1 µg/mL | 0.0652
B. subtilis 168, first compound 0.19 µg/mL, partner 2 µg/mL | 0.0699
S. aureus DSM 20231, first compound 0.006 µg/mL, partner 0.125 µg/mL | 0.656
S. aureus DSM 20231, first compound 0.006 µg/mL, partner 0.25 µg/mL | 0.606
S. aureus DSM 20231, first compound 0.006 µg/mL, partner 0.5 µg/mL | 0.509
S. aureus DSM 20231, first compound 0.048 µg/mL, partner 0.125 µg/mL | 0.0947

fitness
Settings | partner 0.125 µg/mL | partner 0.25 µg/mL | partner 0.5 µg/mL | partner 1 µg/mL
B. subtilis 168, first compound 0.0475 µg/mL | 0.762 | 0.62 | – | –
B. subtilis 168, first compound 0.095 µg/mL | 0.673 | 0.548 | – | –
B. subtilis 168, first compound 0.19 µg/mL | 0.52 | 0.406 | 0.279 | –
S. aureus DSM 20231, first compound 0.012 µg/mL | 0.47 | 0.545 | 0.36 | 0.0767
S. aureus DSM 20231, first compound 0.024 µg/mL | 0.159 | – | 0.171 | 0.0593
S. aureus DSM 20231, first compound 0.048 µg/mL | – | 0.117 | 0.0724 | 0.042

CN(C)[C@@H]1C(O)=C(C(N)=O)C(=O)[C@@]2(O)C(O)=C3C(=O)c4c(O)ccc(Cl)c4[C@@](C)(O)[C@H]3C[C@@H]12 [Chlortetracycline] + COc1ccc(C[C@H](N)C(=O)N[C@H]2[C@@H](O)[C@H](n3cnc4c(N(C)C)ncnc43)O[C@@H]2CO)cc1 [Puromycin]
fitness, one replicate
Settings | first compound 0.006 µg/mL | first compound 0.012 µg/mL | first compound 0.024 µg/mL | first compound 0.048 µg/mL
S. aureus DSM 20231, partner 0.39 µg/mL | 0.853 | – | – | –
S. aureus DSM 20231, partner 0.78 µg/mL | 0.847 | – | – | –
S. aureus DSM 20231, partner 1.56 µg/mL | 0.731 | – | – | –
S. aureus DSM 20231, partner 3.12 µg/mL | – | 0.325 | 0.0559 | 0.0249
S. aureus DSM 20231, partner 6.24 µg/mL | – | 0.0809 | 0.0524 | 0.0264
S. pneumoniae D39V, partner 1 µg/mL | – | 0.822 | 0.875 | 0.647
S. pneumoniae D39V, partner 2 µg/mL | – | 0.793 | 0.773 | 0.453
S. pneumoniae D39V, partner 4 µg/mL | – | 0.619 | 0.606 | 0.171

fitness
Settings | partner 0.39 µg/mL | partner 0.78 µg/mL | partner 1 µg/mL | partner 1.56 µg/mL | partner 2 µg/mL | partner 4 µg/mL
B. subtilis 168, first compound 0.0475 µg/mL | 0.858 | 0.901 | – | 0.904 | – | –
B. subtilis 168, first compound 0.095 µg/mL | 0.741 | 0.728 | – | 0.671 | – | –
B. subtilis 168, first compound 0.19 µg/mL | 0.512 | 0.459 | – | 0.351 | – | –
S. aureus DSM 20231, first compound 0.012 µg/mL | 0.567 | 0.589 | – | 0.497 | – | –
S. aureus DSM 20231, first compound 0.024 µg/mL | 0.2 | 0.217 | – | 0.137 | – | –
S. aureus DSM 20231, first compound 0.048 µg/mL | 0.053 | 0.171 | – | 0.0612 | – | –
S. pneumoniae D39V, first compound 0.375 µg/mL | – | – | 0.0657 | – | 0.0757 | 0.0703
S. pneumoniae D39V, first compound 0.75 µg/mL | – | – | 0.0562 | – | 0.0783 | 0.0776
S. pneumoniae D39V, first compound 1.5 µg/mL | – | – | 0.0348 | – | 0.0557 | 0.0492

CN(C)[C@@H]1C(O)=C(C(N)=O)C(=O)[C@@]2(O)C(O)=C3C(=O)c4c(O)ccc(Cl)c4[C@@](C)(O)[C@H]3C[C@@H]12 [Chlortetracycline] + COc1cccc2c1C(=O)c1c(O)c3c(c(O)c1C2=O)C[C@@](O)(C(=O)CO)C[C@@H]3O[C@H]1C[C@H](N)[C@H](O)[C@H](C)O1 [Doxorubicin]
S. aureus DSM 20231, first compound 0.006 µg/mL, one replicate
Settings | fitness
partner 0.625 µg/mL | 0.719
partner 1.25 µg/mL | 0.685
partner 2.5 µg/mL | 0.64

Settings | fitness
B. subtilis 168, first compound 0.0475 µg/mL, partner 0.625 µg/mL | 0.895
B. subtilis 168, first compound 0.0475 µg/mL, partner 1.25 µg/mL | 0.845
B. subtilis 168, first compound 0.0475 µg/mL, partner 2.5 µg/mL | 0.717
B. subtilis 168, first compound 0.095 µg/mL, partner 0.625 µg/mL | 0.789
B. subtilis 168, first compound 0.095 µg/mL, partner 1.25 µg/mL | 0.775
B. subtilis 168, first compound 0.095 µg/mL, partner 2.5 µg/mL | 0.56
B. subtilis 168, first compound 0.19 µg/mL, partner 0.625 µg/mL | 0.44
B. subtilis 168, first compound 0.19 µg/mL, partner 1.25 µg/mL | 0.404
B. subtilis 168, first compound 0.19 µg/mL, partner 2.5 µg/mL | 0.256
S. aureus DSM 20231, first compound 0.012 µg/mL, partner 0.625 µg/mL | 0.632
S. aureus DSM 20231, first compound 0.012 µg/mL, partner 1.25 µg/mL | 0.671
S. aureus DSM 20231, first compound 0.012 µg/mL, partner 2.5 µg/mL | 0.54
S. aureus DSM 20231, first compound 0.024 µg/mL, partner 0.625 µg/mL | 0.346
S. aureus DSM 20231, first compound 0.024 µg/mL, partner 1.25 µg/mL | 0.358
S. aureus DSM 20231, first compound 0.048 µg/mL, partner 0.625 µg/mL | 0.135
S. aureus DSM 20231, first compound 0.048 µg/mL, partner 1.25 µg/mL | 0.1
S. aureus DSM 20231, first compound 0.048 µg/mL, partner 2.5 µg/mL | 0.0901
S. pneumoniae D39V, first compound 0.012 µg/mL, partner 0.25 µg/mL | 0.829
S. pneumoniae D39V, first compound 0.012 µg/mL, partner 0.5 µg/mL | 0.797
S. pneumoniae D39V, first compound 0.012 µg/mL, partner 1 µg/mL | 0.714
S. pneumoniae D39V, first compound 0.024 µg/mL, partner 0.25 µg/mL | 0.512
S. pneumoniae D39V, first compound 0.024 µg/mL, partner 0.5 µg/mL | 0.458
S. pneumoniae D39V, first compound 0.024 µg/mL, partner 1 µg/mL | 0.451
S. pneumoniae D39V, first compound 0.048 µg/mL, partner 0.25 µg/mL | 0.175
S. pneumoniae D39V, first compound 0.048 µg/mL, partner 0.5 µg/mL | 0.221
S. pneumoniae D39V, first compound 0.048 µg/mL, partner 1 µg/mL | 0.179
S. pneumoniae D39V, first compound 0.375 µg/mL, partner 0.25 µg/mL | 0.0266
S. pneumoniae D39V, first compound 0.375 µg/mL, partner 0.5 µg/mL | 0.016
S. pneumoniae D39V, first compound 0.375 µg/mL, partner 1 µg/mL | 0.0403
S. pneumoniae D39V, first compound 0.75 µg/mL, partner 0.25 µg/mL | 0.031
S. pneumoniae D39V, first compound 0.75 µg/mL, partner 0.5 µg/mL | 0.0286
S. pneumoniae D39V, first compound 0.75 µg/mL, partner 1 µg/mL | 0.0402
S. pneumoniae D39V, first compound 1.5 µg/mL, partner 0.25 µg/mL | 0.0296
S. pneumoniae D39V, first compound 1.5 µg/mL, partner 0.5 µg/mL | 0.0259
S. pneumoniae D39V, first compound 1.5 µg/mL, partner 1 µg/mL | 0.052

CN(C)[C@@H]1C(O)=C(C(N)=O)C(=O)[C@@]2(O)C(O)=C3C(=O)c4c(O)ccc(Cl)c4[C@@](C)(O)[C@H]3C[C@@H]12 [Chlortetracycline] + Cn1nnc(-c2ccc(-c3ccc(N4C[C@H](CO)OC4=O)cc3F)cn2)n1 [Tedizolid]
S. aureus DSM 20231, first compound 0.006 µg/mL, one replicate
Settings | fitness
partner 0.0625 µg/mL | 0.696
partner 0.125 µg/mL | 0.659
partner 0.25 µg/mL | 0.361

fitness
Settings | first compound 0.012 µg/mL | first compound 0.024 µg/mL | first compound 0.048 µg/mL | first compound 0.375 µg/mL | first compound 0.75 µg/mL | first compound 1.5 µg/mL
S. aureus DSM 20231, partner 0.0625 µg/mL | 0.496 | 0.236 | 0.0517 | – | – | –
S. aureus DSM 20231, partner 0.125 µg/mL | 0.532 | 0.172 | 0.0562 | – | – | –
S. aureus DSM 20231, partner 0.25 µg/mL | 0.25 | 0.161 | 0.102 | – | – | –
S. pneumoniae D39V, partner 0.03125 µg/mL | 0.966 | 0.949 | 0.944 | – | – | –
S. pneumoniae D39V, partner 0.0625 µg/mL | 0.95 | 0.962 | 0.878 | – | – | –
S. pneumoniae D39V, partner 0.125 µg/mL | 0.795 | 0.789 | 0.845 | 0.0202 | 0.0366 | 0.0518
S. pneumoniae D39V, partner 0.25 µg/mL | – | – | – | 0.0375 | 0.043 | 0.0385
S. pneumoniae D39V, partner 0.5 µg/mL | – | – | – | 0.0294 | 0.0348 | 0.0435

CN(C)[C@@H]1C(O)=C(C(N)=O)C(=O)[C@@]2(O)C(O)=C3C(=O)c4c(O)ccc(Cl)c4[C@@](C)(O)[C@H]3C[C@@H]12 [Chlortetracycline] + N[C@@H]1CONC1=O [Cycloserine D]
S. aureus DSM 20231, first compound 0.006 µg/mL, one replicate
Settings | fitness
partner 0.375 µg/mL | 0.804
partner 0.75 µg/mL | 0.782
partner 1.5 µg/mL | 0.804

fitness
Settings | first compound 0.012 µg/mL | first compound 0.024 µg/mL | first compound 0.0475 µg/mL | first compound 0.048 µg/mL | first compound 0.095 µg/mL | first compound 0.19 µg/mL
B. subtilis 168, partner 0.125 µg/mL | – | – | 0.936 | – | 0.784 | 0.515
B. subtilis 168, partner 0.25 µg/mL | – | – | 0.894 | – | 0.782 | 0.439
B. subtilis 168, partner 0.5 µg/mL | – | – | 0.899 | – | 0.764 | 0.515
S. aureus DSM 20231, partner 0.375 µg/mL | 0.667 | 0.241 | – | 0.0627 | – | –
S. aureus DSM 20231, partner 0.75 µg/mL | 0.623 | 0.249 | – | 0.0661 | – | –
S. aureus DSM 20231, partner 1.5 µg/mL | 0.68 | 0.264 | – | 0.0906 | – | –
